Like-named read-outs stand apart in the source and are kept apart here. Residues, ends and D or L forms follow the SMILES beside them.
How the values were obtained:
healthy volunteers = assay: Profile of Mood States (POMS) after consumption of tryptophan sources (Example 6); type: in vivo, human; conditions: for mood changes after the intake (POMS total mood scores): over time after intake
Description: The POMS comprises five different subscales for mood; ranging from Anger, Depression, Fatigue and Tension that refer to a negative mood state, to Vigor concerning a positive mood.

[1] = both, human, in vivo
Procedure: The amino acid profiles in plasma were analyzed as described in Example 6 by HPLC according to van Eijk et al (J. Chromatogr. 1993: 620: 143-148).
The aim of the present study was to investigate in healthy volunteers plasma Trp/LNAA profiles and mood after the consumption of different tryptophan containing preparations.
Eighteen healthy students (9 males and 9 females: age between 18-30 years) participated in the study. Exclusion criteria for participation were chronic and current illness, history of psychiatric or medical illness, use of medication or drugs, alcohol consumption (>2 units/day), metabolic-, hormonal- or intestinal diseases and irregular diets or deviant eating habits (assessed by health and life-style questionnaires). Subjects participating in the experiment were in the normal range for the Body-Mass Index (BMI in kg/m^2 between 20-25) and female subjects are matched for contraception. Women participated during their mid-late follicular phase (day 4-10), while women using contraception participated when they actually used the contraception pill. […] All subjects participating in the experiment signed an Informed Consent Form. This study was conducted according to the EC principles of Good Clinical Practice (GCP) adopted by the 52nd WMA General Assembly, Edinburgh, Scotland, October 2000.
Subjects were instructed to fast overnight; only water or tea without sugar was permitted. During five experimental morning sessions, subjects visited the laboratory to monitor plasma Trp/LNAA concentrations and mood following the intake of a drink containing different Trp or LNAA concentrations. The order of presentation of the various drinks was counterbalanced and the four experimental days were separated by a one-week period. On each experimental morning, a 312 ml drink was provided containing different tryptophan (Trp) or LNAA concentrations (Table 1). All drinks contained 0.10 g sweetener (acesulfame) and were filled up with plain water in order to reach 312 mL. A research assistant blind to the dietary conditions conducted the administration of the different drinks.
Blood samples were collected in duplicate before and 15, 30, 60, 90, 120, 180 and 210 minutes after ingestion in 5 ml vacutainer tubes containing sodium heparine and were then centrifuged at 5000 rpm for 5 min at 4° C. The resulting supernatants were mixed with sulfasalicyl acid (4 mg/100 microliter) and directly stored at −80° C. until analysis. Plasma amino acid analysis was conducted with HPLC, making use of a 2-3 μm Bischof Spherisorb ODS II column as described by van Eijk et al (J. Chromatogr. 1993: 620: 143-148). The plasma Trp/LNAA ratios were calculated by dividing the plasma molar tryptophan concentration by the sum of the plasma molar concentrations of the large neutral amino acids valine, isoleucine, leucine, tyrosine and phenylalanine. Statistical analysis took place by means of repeated measures multivariate and univariate analyses of variance (MANOVA and ANOVA) using the General Linear Model (GLM: SPSS 12.0 for Windows). All statistics were evaluated at a significance level of P=0.05.

In the case of `N[C@@H](CO)C(=O)N[C@@H](Cc1c[nH]c2ccccc12)C(=O)O` [SYN, Ser-Trp] (H-Ser-Trp-OH), the “mood changes after the intake (POMS total mood scores)” value (healthy volunteers) is reported as “not significant”.

With `N[C@@H](Cc1c[nH]c2ccccc12)C(=O)O` [TRP, L-tryptophan] the “plasma Trp/LNAA ratio” value ([1]; 0 min) was 0.11, the “plasma Trp/LNAA ratio” value ([1]; 30 min) was 0.12 and the “plasma Trp/LNAA ratio” value ([1]; 60 min) was 0.29. The “plasma Trp/LNAA ratio” value ([1]; 90 min) was 0.31, the “plasma Trp/LNAA ratio” value ([1]; 120 min) was 0.32 and the “plasma Trp/LNAA ratio” value ([1]; 180 min) was 0.24. For the same molecule, the “plasma Trp/LNAA ratio” value ([1]; 210 min) was 0.20 and the “mood (POMS total mood scores)” value (healthy volunteers; 60 min after the intake) was “improvements of mood”.

For “ALAC: intact alpha-lactalbumin obtained as Biopure (>90% alpha-lactalbumin) from Davisco Foods International”, the “mood changes after the intake (POMS total mood scores)” value (healthy volunteers) was “no mood changes”.
